Data: patent publication US20050208029A1, “Method of forming pancreatic beta cells from mesenchymal cells” (priority 2002, published 2005)

Tested on: KUSA/A1 cells
Test: Insulin concentration (ELISA) in supernatant of KUSA/A1 cells cultured 12 days with or without bFGF
Assay type: cell-based, mouse
Details: 2 h after 25.0 mM glucose
Description: The KUSA/A1 cells obtained in Example 1 were treated with trypsin and transferred to a 6-well dish (product of Falcon) so that the cell density might become as low as possible.
The cells were cultured in serum-free DMEM containing insulin, transferrin, progesterone, putrescine and selenium or in DMEM containing 10% FBS at 33° C. for 12 days using an incubator with a CO2 concentration of 5%.
bFGF (recombinant human basic fibroblast growth factor; product of R&D) was added to each of the serum-free or serum-containing wells to a final concentration of 10 ng/ml. Hereafter, unless otherwise specified, cell culture was carried out under the same conditions while medium exchange was conducted at 2-day intervals.
After 12 days of cultivation, the medium in each well was discarded, the cells in each well were washed repeatedly with three portions of PBS. After washing, 2 ml of PBS was added to each well afresh, and cultivation was performed at 33° C. for 2 hours using an incubator with a CO2 concentration of 5%.
After 2 hours of cultivation, the PBS was discarded, 2 ml of DMEM containing 25.0 mM glucose was added afresh, and cultivation was performed at 33° C. for further 2 hours using an incubator with a CO2 concentration of 5%. […]

bFGF: recombinant human basic fibroblast growth factor; product of R&D; used as pancreatic β cell forming agent
insulin detected in the supernatant (DMEM containing bFGF (10 ng/ml) and 10% FBS, below assay sensitivity limit): below 39 pg/mL
insulin detected in the supernatant (serum-free DMEM containing bFGF (10 ng/ml), insulin, transferrin, progesterone, putrescine and selenium): 223 pg/mL
